Drawing on patent US20220296595A1, “CDK INHIBITORS” (QILU REGOR THERAPEUTICS INC., priority 2019, published 2022), this text covers IC50 for 12 compounds.

For one assay, the target named is T1, CDK4/CyclinD1 (Homo sapiens, UniProt P11802).
T1 construct: purchased Thermofisher PR8064A
The assay is described as follows: Assay for inhibition of CDK4/CyclinD1 (Caliper microfluidic kinase assay). Format: biochemical. Summed up: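 IC50 was obtained by 4-parameter sigmoidal fitting after 1 nM CDK4/CyclinD1, 200 μM ATP and 1 μM FL-34 substrate reacted for 3 h at room temperature (pH 7.5 HEPES, 10 mM MgCl2). After EDTA quench, substrate and product were separated and detected on a Caliper microfluidic chip.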

The target in a further assay is T2, CDK6/CyclinD3 (Homo sapiens, UniProt Q00534).
T2 construct: purchased Carna 04-107
T2 sequence (Q00534 whole entry): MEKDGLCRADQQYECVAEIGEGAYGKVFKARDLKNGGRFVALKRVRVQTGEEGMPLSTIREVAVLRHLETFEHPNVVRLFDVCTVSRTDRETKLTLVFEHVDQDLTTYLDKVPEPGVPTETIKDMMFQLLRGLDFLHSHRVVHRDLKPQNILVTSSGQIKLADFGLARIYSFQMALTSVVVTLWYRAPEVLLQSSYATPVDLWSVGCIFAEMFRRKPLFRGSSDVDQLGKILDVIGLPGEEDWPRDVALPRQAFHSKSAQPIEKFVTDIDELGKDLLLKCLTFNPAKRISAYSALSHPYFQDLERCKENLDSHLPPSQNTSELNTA
T2 sequence (P30281 whole entry partner): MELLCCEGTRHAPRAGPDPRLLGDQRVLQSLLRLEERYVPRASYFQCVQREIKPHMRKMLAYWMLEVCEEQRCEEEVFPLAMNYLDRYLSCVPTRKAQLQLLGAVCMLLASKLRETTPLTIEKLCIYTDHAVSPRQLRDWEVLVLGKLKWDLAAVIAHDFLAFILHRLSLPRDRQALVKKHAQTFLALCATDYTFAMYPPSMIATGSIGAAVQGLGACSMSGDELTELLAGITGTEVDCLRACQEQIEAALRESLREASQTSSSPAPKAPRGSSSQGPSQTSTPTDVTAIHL
As to the kind of experiment: Assay for inhibition of CDK6/CyclinD3 (Caliper microfluidic kinase assay). Format: biochemical. Summed up:
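IC50s came from four-parameter dose-response fits of microfluidic substrate/product separation data. Reactions held 2 nM CDK6/CyclinD3, 300 μM ATP and 1 μM 5-FAM peptide FL-34 in pH 7.5 HEPES/MgCl2 buffer, ran 3 hours at room temperature, then were quenched with EDTA.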

The target in the next assay is T3, CDK2/CyclinE1 (Homo sapiens, UniProt P24941).
T3 construct: purchased SignalChem C29-18G
As to the kind of experiment: Assay for inhibition of CDK2/CyclinE1 (Caliper microfluidic kinase assay). Format: biochemical. The settings on record: read-out: CDK2 IC50. Summed up:
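IC50 came from 4-parameter fits of substrate-to-product conversion, separated on a Caliper chip after an EDTA stop. Reactions ran 3 hours at room temperature with 100 μM ATP, 5 μM fluorescent FL-18 peptide and 5 nM enzyme in 100 mM HEPES pH 7.5, 10 mM MgCl2.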

Another assay deals with T47D breast cancer cells. The assay is described as follows: Anti-proliferation assay in T47D cell (Cyquant, day 6). Format: cell-based, human. Conditions: Homo sapiens, T47D, anti-proliferation, T47D cells; read-out: T47D IC50. In outline:
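A ten-point, 3-fold compound series (10 μM down to 0.51 nM) was applied to overnight-settled cells in 10% FBS RPMI 1640, and DNA content was read by CyQuant fluorescence 6 days later. An untreated plate read before dosing served as baseline for subtraction before IC50 fitting.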

For assay [1], the system named is phosphorylation of Retinoblastoma Protein (pRb Ser807/811 or Ser780) in T47D cells. The assay is described as follows: Inhibition of phosphorylation of retinoblastoma protein (pRb) in T47D cell (ELISA). Format: cell-based, human. The settings on record: Homo sapiens, T47D, read-out: Phospho T47D Ser807 IC50, pRb Ser807 phosphorylation, T47D cells. In outline: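 T47D cells in RPMI 1640 + 10% FBS, adhered overnight, then treated 24 h with 3-fold compound titrations (top concentration […]). Lysates assayed by sandwich ELISA for pRb Ser807/811 or Ser780 with HRP/TMB detection. IC50 from 4-parameter sigmoidal fit.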
(In an ELISA, binding on a coated surface is turned into a signal by an enzyme label.)

Read-outs that look alike come from different tables or passages of the source. A value given as a limit tells only on which side of the number the result lay.

T1 sequence (P11802 whole entry): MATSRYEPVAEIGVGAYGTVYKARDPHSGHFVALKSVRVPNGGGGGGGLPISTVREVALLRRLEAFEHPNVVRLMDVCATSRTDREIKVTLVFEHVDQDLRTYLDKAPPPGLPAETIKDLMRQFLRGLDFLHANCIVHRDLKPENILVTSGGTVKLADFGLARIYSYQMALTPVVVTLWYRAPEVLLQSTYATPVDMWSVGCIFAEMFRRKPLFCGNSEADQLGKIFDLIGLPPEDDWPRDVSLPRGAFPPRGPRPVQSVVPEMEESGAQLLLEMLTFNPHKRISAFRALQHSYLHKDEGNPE
T1 sequence (P24385 whole entry partner): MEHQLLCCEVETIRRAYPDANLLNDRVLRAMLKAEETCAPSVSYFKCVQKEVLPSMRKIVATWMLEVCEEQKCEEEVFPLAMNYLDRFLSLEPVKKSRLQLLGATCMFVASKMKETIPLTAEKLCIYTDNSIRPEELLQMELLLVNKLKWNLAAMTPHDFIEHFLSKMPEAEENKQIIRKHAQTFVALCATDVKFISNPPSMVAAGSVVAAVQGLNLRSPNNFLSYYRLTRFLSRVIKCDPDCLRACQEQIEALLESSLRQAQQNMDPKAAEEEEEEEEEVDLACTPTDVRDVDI

Take `CC(C)c1cnn2ccc(-c3ccnc(Nc4ccc(N5CCN(C6CCNCC6)CC5=O)cn4)n3)cc12` [compound 41]: the IC50 (in general, the midpoint of a concentration-inhibition curve) on CDK4/CyclinD1 (CDK4/CyclinD1, 200 μM ATP) was < 10 nM; on CDK6/CyclinD3 (CDK6/CyclinD3, 300 μM ATP) it was 10 to 100 nM; at CDK2/CyclinE1 (CDK2/CyclinE1, 100 μM ATP) it was 10 to 100 nM; with T47D breast cancer cells it was < 100 nM; in assay [1], < 100 nM.
For the compound `CC(C)c1cnn2ccc(-c3nc(Nc4ccc(N5CCN(C6CNC6)CCC5=O)cn4)ncc3F)cc12` [compound 42], the 50% inhibitory concentration (IC50) against CDK4/CyclinD1 (CDK4/CyclinD1, 200 μM ATP) is < 10 nM; on CDK6/CyclinD3 (CDK6/CyclinD3, 300 μM ATP) it was 10 to 100 nM; at CDK2/CyclinE1 (CDK2/CyclinE1, 100 μM ATP), 10 to 100 nM; with T47D breast cancer cells, < 100 nM; in assay [1] it was < 100 nM.
With `CCN1CCC(Cn2ccc(Nc3ncc(F)c(-c4ccn5ncc(C(C)C)c5c4)n3)cc2=O)CC1` [compound 44], the half-inhibitory concentration (IC50) on CDK4/CyclinD1 (CDK4/CyclinD1, 200 μM ATP) was < 10 nM; against CDK6/CyclinD3 (CDK6/CyclinD3, 300 μM ATP), 10 to 100 nM; on CDK2/CyclinE1 (CDK2/CyclinE1, 100 μM ATP) it was 100 to 1000 nM; in the assay with T47D breast cancer cells, > 1000 nM; in assay [1], 500 to 1000 nM.
In the case of `CCN1CCC(COc2cc(Nc3ncc(F)c(-c4ccn5ncc(C(C)C)c5c4)n3)ccn2)CC1` [compound 45], the half-maximal inhibitory concentration (IC50) against CDK4/CyclinD1 (CDK4/CyclinD1, 200 μM ATP) was < 10 nM; on CDK6/CyclinD3 (CDK6/CyclinD3, 300 μM ATP), 10 to 100 nM; at CDK2/CyclinE1 (CDK2/CyclinE1, 100 μM ATP), < 10 nM; with T47D breast cancer cells, 100 to 500 nM; in assay [1], 500 to 1000 nM.
In the case of `CC(C)c1cnn2ccc(-c3nc(Nc4ccc(N5CCN(C)CCC5=O)cn4)ncc3F)cc12` [compound 46], the 50% inhibitory concentration (IC50) against CDK4/CyclinD1 (CDK4/CyclinD1, 200 μM ATP) is < 10 nM; on CDK6/CyclinD3 (CDK6/CyclinD3, 300 μM ATP), 10 to 100 nM; at CDK2/CyclinE1 (CDK2/CyclinE1, 100 μM ATP), 10 to 100 nM; in the assay with T47D breast cancer cells it was < 100 nM; in assay [1], < 100 nM.
On to `CCN1CCC(=O)N(c2ccc(Nc3ncc(F)c(-c4ccn5ncc(C(C)C)c5c4)n3)nc2)CC1` [compound 47], for which the 50% inhibitory concentration (IC50) at CDK4/CyclinD1 (CDK4/CyclinD1, 200 μM ATP) was < 10 nM; against CDK6/CyclinD3 (CDK6/CyclinD3, 300 μM ATP), 10 to 100 nM; on CDK2/CyclinE1 (CDK2/CyclinE1, 100 μM ATP), 10 to 100 nM; in the assay with T47D breast cancer cells, < 100 nM; in assay [1] it was < 100 nM.
On to `CCN1CCN(c2ccc(Nc3ncc(F)c(-c4ccn5ncc(C(C)C)c5c4)n3)nc2)C(=O)C1` [compound 48], for which the IC50 was < 10 nM against CDK4/CyclinD1 (CDK4/CyclinD1, 200 μM ATP); 10 to 100 nM against CDK6/CyclinD3 (CDK6/CyclinD3, 300 μM ATP); 10 to 100 nM at CDK2/CyclinE1 (CDK2/CyclinE1, 100 μM ATP); < 100 nM in the assay with T47D breast cancer cells; < 100 nM in assay [1].
Turning to `CC(C)c1cnn2ccc(-c3nc(Nc4ccc(N5CCN(S(C)(=O)=O)CC5=O)cn4)ncc3F)cc12` [compound 51], the concentration for half-maximal inhibition (IC50) is < 10 nM at CDK4/CyclinD1 (CDK4/CyclinD1, 200 μM ATP); 10 to 100 nM at CDK6/CyclinD3 (CDK6/CyclinD3, 300 μM ATP); 10 to 100 nM on CDK2/CyclinE1 (CDK2/CyclinE1, 100 μM ATP); < 100 nM with T47D breast cancer cells; < 100 nM in assay [1].
Regarding `CC(C)c1cnn2ccc(-c3nc(Nc4ccc(N5CCN(CC(F)(F)F)CC5=O)cn4)ncc3F)cc12` [compound 53], the IC50 was < 10 nM against CDK4/CyclinD1 (CDK4/CyclinD1, 200 μM ATP); 10 to 100 nM on CDK6/CyclinD3 (CDK6/CyclinD3, 300 μM ATP); 10 to 100 nM on CDK2/CyclinE1 (CDK2/CyclinE1, 100 μM ATP); 100 to 500 nM in the assay with T47D breast cancer cells; < 100 nM in assay [1].
In the case of `CC(C)n1cnc2c(OC(F)F)nc(-c3ccnc(Nc4ccc(N5CCOCC5=O)cn4)n3)cc21` [compound 63], the 50% inhibitory concentration (IC50) at CDK4/CyclinD1 (CDK4/CyclinD1) is < 10 nM; on CDK6/CyclinD3 (CDK6/CyclinD3), 10 to 100 nM; at CDK2/CyclinE1 (CDK2/CyclinE1), 100 to 1000 nM; with T47D breast cancer cells, 100 to 500 nM; in assay [1] it was < 100 nM.
Taken in the same sequence, the figures for `COc1nc(-c2ccnc(Nc3ccc(CN4CCC(C#N)CC4)cn3)n2)cc2c1ncn2C(C)C` [compound 68] were < 10 nM, 10 to 100 nM, > 1000 nM, 100 to 500 nM and < 100 nM.
As to `COc1nc(-c2nc(Nc3ccc(N4CCC(N(C)C)CC4)cn3)ncc2F)cc2c1ncn2C(C)C` [compound 70], the half-maximal inhibitory concentration (IC50) on CDK4/CyclinD1 (CDK4/CyclinD1) is < 10 nM; at CDK6/CyclinD3 (CDK6/CyclinD3), 10 to 100 nM; on CDK2/CyclinE1 (CDK2/CyclinE1), > 1000 nM; in the assay with T47D breast cancer cells, 100 to 500 nM; in assay [1], < 100 nM.
